Measurements taken from US10066025B2, “Compositions and methods for detecting, treating and preventing diseases and disorders” (YALE UNIVERSITY, priority 2012, dated 2018).
“Also recorded” adds a separate entry of the source.

How the values were obtained:
[1] = test system: PI3K/AKT and MAPK pathways; experiment: AKT and MAPK signaling and Bcl-2 expression by western blot; format: cell-based, human
Method: FIG. 12, comprising FIGS. 12A through 12E, is a set of images and graphs showing renalase upregulates Bcl-2, activates PI3K/AKT, ERK, p38, and inhibits JNK. Western blot analysis; P− indicates phosphorylated, activated proteins; signals normalized to GAPDH loading control, then changes in protein phosphorylation (increase=activation, decrease=inhibition) from time 0 are calculated. FIG. 12A: HK-2 and HUVEC cells incubated with renalase for 24 hrs; FIG. 12B: Western blot of time course of AKT and MAPK signaling by renalase, HK-2 cells incubated with renalase for indicated time; changes over baseline in 4c-d are significant (p<0.05); FIG. 12C: Activation of AKT(T308), AKT(5473) and ERK; FIG. 12D: Inhibition of JNK; FIG. 12E: Marked and sustained (60 min) upregulation of p38 by renalase in the presence of cisplatin, western blot for time course, REN=renalase, CP=cisplatin.
MAPK signaling by renalase and renalase peptides. Western blot analysis; ERK: Extracellular signal-Regulated Kinase 1 and 2; JNK: c-Jun N-terminal Kinases; AKT: protein kinase B; p-indicates phosphorylated, activated proteins; representative blot, n=3 (FIG. 20A). Renalase activates AKT (FIG. 20B). Western blot analysis; P− indicates phosphorylated, activated proteins Representative blot, n=3 (FIG. 20B, left panel). Signals normalized to GAPDH loading control; n=3, change over baseline statistically significant (P<0.05) from 1-60 min for ERK, p38 and AKT (T308), and at 30 min only for AKT (S473) (FIG. 20B, right panel). ERK or AKT inhibition abrogates protective effect of RP-H220 (FIG. 20C). Plasma creatinine levels from mice subjected to sham-surgery or to renal ischemia and reperfusion (IR); Renalase WT mice were subjected to sham-surgery or to 30 min renal IR. For mice subjected to renal IR, RP-H220 or vehicle (saline) was injected 10 min prior to renal ischemia. Some animals were pretreated with either the ERK inhibitor PD98059 or the PI3K/AKT inhibitor wortmanin. (N=6-8 per group). *: P<0.05 vs. vehicle-treated mice subjected to sham-surgery; #: P<0.05 vs. vehicle-treated WT mice subjected to renal IR (FIG. 20C).

[2] = NADH / amine oxidase activity of renalase peptides; format: biochemical; settings: 25 mM Tris, pH 7.5, 5 mM NaCl, 150 μM NADH, 37° C.
Method: Renalase isoforms Ren1-7; exons numbered from 1 to 10; RP-224: renalase peptide amino acid 224-233 of Ren1 or Ren2; RP-220; amino acids 220-239; RP-H220: histidine tagged RP-220; RP-Scr220: scrambled RP-220 (FIG. 19A). CCL-119 cells in culture treated with anti-renalase monoclonal antibody for 24 hrs; cell survival measured by the WST-1 method; n=3, *: P<0.05 (FIG. 19B). HK-2 cell treated with 2 mM H2O2 with and without renalase peptides for indicated time; LDH: lactate dehydrogenase; n=6, *: P<0.05 for Control vs. renalase peptide (FIG. 19C). HK-2 cells treated with 20 μM cisplatin with and without recombinant renalase and renalase peptides for 24 hrs, *: P<0.05, control vs. renalase peptide (FIG. 19D). Plasma creatinine levels from mice subjected to sham-surgery or to renal ischemia and reperfusion (IR); Renalase WT mice were subjected to sham-surgery or to 30 min renal IR. For mice subjected to renal IR, RP-H220 or vehicle (saline) was injected 10 min prior to renal ischemia.
Human recombinant renalase was synthesized as described (Desir et al., 2012, J Am Heart Assoc. 1:e002634). […] Renalase enzymatic activity was measured as previously described (Desir et al., 2012, J Am Heart Assoc. 1:e002634). Renalase expression was detected using an anti-renalase monoclonal antibody generated against the renalase peptide RP-220 (amino acid

[3] = test system: renal ischemia/reperfusion (IR) injury; experiment: Murine model of renal ischemia/reperfusion (IR) injury, plasma creatinine; format: in vivo, mice; settings: renalase peptides 100 μg subcutaneous 10 to 30 min prior to 30 min renal ischemia, WT mice
Method: Adult male renalase deficient (KO) mice (Wu et al., 2011, Kidney Int 79: 853-860) on a C57BL/6 background were subjected to renal ischemia/reperfusion (IR) as described (Kim et al., 2009, Kidney Int 75: 809-823; Kim et al., 2010, Am J Physiol Renal Physiol 299(2):F347-58). Renalase KO or wild type (WT) mice (C57BL/6 from Harlan Labs, Indianapolis, Ind.) were subjected to sham-operation or to 20 min. (moderate) or 30 min. (severe) renal ischemia and 24 hr. reperfusion. To test the renal protective effects of recombinant human renalase, mice were pretreated with saline (vehicle) or with recombinant renalase (0.5, 1.5 or 4.5 mg/kg, s.c.) 10 min. prior to 30 min. renal ischemia. It was also tested whether renalase treatment after completion of renal ischemia also provides renal protection. Separate cohorts of mice were treated with saline or with renalase (1.5 mg/kg, s.c.) 30 min. or 60 min. after reperfusion of the ischemic kidney. To test whether blocking alpha receptors would mimic the renal protective effects of human recombinant renalase administration, phentolamine (an alpha receptor antagonist, 5 mg/kg, i.p.) was given in some mice 15 min. before renal ischemia.
Plasma creatinine was measured as described with an enzymatic creatinine reagent kit according to the manufacturer's instructions (Thermo Fisher Scientific, Waltham, Mass.) (Slot, 1965, J Clin Lab Invest 17: 381-387).
After animal care and use committee approval, adult male C57BL/6 (Harlan Labs, Indianapolis, Ind.) were subjected to sham-operation or to 30 minutes of renal ischemia followed by 24 hrs of reperfusion as previously described (Lee et al., 2004, American journal of physiology. Renal physiology 286:F298-306). To test the renal protective effects of renalase peptides (RP-220, RP-H220 and RP-224), mice were pretreated with saline (vehicle) or with renalase peptides (100 μg subcutaneous) 10 to 30 minutes prior to renal ischemia.
Blood was collected from mice anesthetized with isoflurane via cardiac puncture into a heparinized syringe and was subsequently centrifuged to separate plasma. Samples were submitted to the Yale O'Brien Kidney Center for measurement of BUN and creatinine. Plasma creatinine was measured either by an enzymatic creatinine reagent kit according to the manufacturer's instructions (Thermo Fisher Scientific, Waltham, Mass.) or by HPLC. These methods of creatinine measurement largely eliminate the interferences from mouse plasma chromagens, known to occur with the Jaffe method.

RP H220: histidine tagged RP-220, SEQ ID NO: 4, HHHHHHCIRFVSIDNKKRNIESSEIG (listed as Homo sapiens)
return of phosphorylation to baseline ([1]; HK-2 cells): ≤ 60 min | time to detectable increased phosphorylation ([1]; HK-2 cells): ≤ 1 min | JNK phosphorylation ([1]; at 60 min): decreased | NADH or amine oxidase activity [2]: no detectable NADH or amine oxidase activity; also recorded: neither detectable oxidase activity | protection against ischemic AKI (renal injury, plasma creatinine at 24 hr) [3]: protected against ischemia | protection against ischemic AKI (renal injury, plasma creatinine at 24 hr) ([3]; listed as RP-H220): reduced renal injury; also recorded: more effective than RP-220; also recorded: ameliorated the renal ischemic injury
